Measured values: ChEMBL document CHEMBL1150987, “Structure/activity relationships among photosensitizers related to pheophorbides and bacteriopheophorbides” (1992)

How the values were obtained:
Format in all cases: functional
Mus musculus [1] = assay: In vivo antitumor activity as percent tumor response at dose of 0.3 mg/kg, 24 hours post injection of SMT-F tumor in DBA/2 mice at day 1-2
Mus musculus [2] = assay: In vivo antitumor activity as percent tumor response at dose of 0.3 mg/kg, 24 hours post injection of SMT-F tumor in DBA/2 mice at day 30
Mus musculus [3] = assay: In vivo antitumor activity as percent tumor response at dose of 0.3 mg/kg, 24 hours post injection of SMT-F tumor in DBA/2 mice at day 7
Mus musculus [4] = assay: In vivo antitumor activity as percent tumor response at dose of 5.0 mg/kg, 24 hours post injection of SMT-F tumor in DBA/2 mice at day 1-2
Mus musculus [5] = assay: In vivo antitumor activity as percent tumor response at dose of 5.0 mg/kg, 24 hours post injection of SMT-F tumor in DBA/2 mice at day 30
Mus musculus [6] = assay: In vivo antitumor activity as percent tumor response at dose of 5.0 mg/kg, 24 hours post injection of SMT-F tumor in DBA/2 mice at day 7
Mus musculus [7] = assay: In vivo antitumor activity as percent tumor response at dose of 5.0 mg/kg, 3 hours post injection of SMT-F tumor in DBA/2 mice at day 1-2
Mus musculus [8] = assay: In vivo antitumor activity as percent tumor response at dose of 5.0 mg/kg, 3 hours post injection of SMT-F tumor in DBA/2 mice at day 30
Mus musculus [9] = assay: In vivo antitumor activity as percent tumor response at dose of 5.0 mg/kg, 3 hours post injection of SMT-F tumor in DBA/2 mice at day 7
Mus musculus [10] = assay: In vivo antitumor activity as percent tumor response at dose of 2.5 mg/kg 3h between injection and light treatment in mice at day 7
Mus musculus [11] = assay: In vivo antitumor activity as percent tumor response at dose of 2.5 mg/kg, 24 hours post injection of SMT-F tumor in DBA/2 mice at day 1-2
Mus musculus [12] = assay: In vivo antitumor activity as percent tumor response at dose of 2.5 mg/kg, 24 hours post injection of SMT-F tumor in DBA/2 mice at day 30
Mus musculus [13] = assay: In vivo antitumor activity as percent tumor response at dose of 2.5 mg/kg, 24 hours post injection of SMT-F tumor in DBA/2 mice at day 7
Mus musculus [14] = assay: In vivo antitumor activity as percent tumor response at dose of 2.5 mg/kg, 3 hours post injection of SMT-F tumor in DBA/2 mice at day 1-2
Mus musculus [15] = assay: In vivo antitumor activity as percent tumor response at dose of 2.5 mg/kg, 3 hours post injection of SMT-F tumor in DBA/2 mice at day 30
Mus musculus [16] = assay: In vivo antitumor activity as percent tumor response at dose of 0.3 mg/kg, 3 hours post injection of SMT-F tumor in DBA/2 mice at day 30
Mus musculus [17] = assay: In vivo antitumor activity as percent tumor response at dose of 0.3 mg/kg, 3 hours post injection of SMT-F tumor in DBA/2 mice at day 7
Mus musculus [18] = assay: In vivo antitumor activity as percent tumor response at dose of 0.3 mg/kg, 3 hours post injection of SMT-F tumor in DBA/2 mice at day 1-2
Mus musculus [19] = assay: In vivo antitumor activity as percent tumor response at dose of 1.0 mg/kg, 24 hours post injection of SMT-F tumor in DBA/2 mice at day 1-2
Mus musculus [20] = assay: In vivo antitumor activity as percent tumor response at dose of 1.0 mg/kg, 24 hours post injection of SMT-F tumor in DBA/2 mice at day 30
Mus musculus [21] = assay: In vivo antitumor activity as percent tumor response at dose of 1.0 mg/kg, 24 hours post injection of SMT-F tumor in DBA/2 mice at day 7
Mus musculus [22] = assay: In vivo antitumor activity as percent tumor response at dose of 0.25 mg/kg, 24 hours post injection of SMT-F tumor in DBA/2 mice at day 1-2
Mus musculus [23] = assay: In vivo antitumor activity as percent tumor response at dose of 0.25 mg/kg, 24 hours post injection of SMT-F tumor in DBA/2 mice at day 30
Mus musculus [24] = assay: In vivo antitumor activity as percent tumor response at dose of 0.25 mg/kg, 24 hours post injection of SMT-F tumor in DBA/2 mice at day 7

In the case of `CCCCCCOCC1=C(C)c2cc3nc(c4c5[nH]c(cc6[nH]c(cc1n2)c(C)c6CC)c(C)c5C(=O)C4)[C@@H](CCC(=O)OC)[C@@H]3C`, the Response (Mus musculus [1]) is reported as 100%, the Response (Mus musculus [2]) is reported as 0% and the Response (Mus musculus [3]) is reported as 33%.

With `C=Cc1c(C)c2cc3nc(c4c5nc(cc6[nH]c(cc1[nH]2)c(C)c6CC)C(C)=C5C(=S)C4)[C@@H](CCC(=O)OC)[C@@H]3C` the Response (Mus musculus [4]) was 0%, the Response (Mus musculus [5]) was 0% and the Response (Mus musculus [6]) was 0%. For the same compound, the Response (Mus musculus [7]) was 100%, the Response (Mus musculus [8]) was 80% and the Response (Mus musculus [9]) was 100%.

`CCc1c(C)c2cc3[nH]c(cc4nc(c(CC(=O)OC)c5nc(cc1[nH]2)C(C)=C5C(=O)OC)[C@@H](CCC(=O)OC)[C@@H]4C)c(C)c3C=O` gave a Response (Mus musculus [4]) of 0%, a Response (Mus musculus [5]) of 0% and a Response (Mus musculus [6]) of 0%.

For `CCc1c(C)c2cc3[nH]c(cc4nc(c5c6nc(cc1[nH]2)C(C)=C6C(=O)C5)[C@@H](CCC(=O)OC)[C@@H]4C)c(C)c3C=O`, the Response (Mus musculus [10]) was 67%, the Response (Mus musculus [11]) was 0% and the Response (Mus musculus [12]) was 0%. For the same compound, the Response (Mus musculus [13]) was 0%, the Response (Mus musculus [14]) was 67% and the Response (Mus musculus [15]) was 0%.

`CCCCCCOC(C)c1c(C)c2cc3nc(c4c5nc(cc6[nH]c(cc1[nH]2)[C@@](C)(O)[C@]6(O)CC)C(C)=C5C(=O)C4)[C@@H](CCC(=O)OC)[C@@H]3C` (stereo partly drawn) was tested, and the Response (Mus musculus [16]) was 0%, the Response (Mus musculus [17]) was 0% and the Response (Mus musculus [18]) was 0%.

Work on `CCc1c(C)c2cc3[nH]c(cc4nc(c5c6nc(cc1[nH]2)C(C)=C6C(=O)[C@@H]5C(=O)OC)[C@@H](CCC(=O)OC)[C@@H]4C)c(C)c3C=O` yielded a Response (Mus musculus [4]) of 80%, a Response (Mus musculus [5]) of 0% and a Response (Mus musculus [6]) of 60%.

`CCCCCCOC(C)C1=C(C)c2cc3nc(c(CC(=O)OC)c4[nH]c(cc5[nH]c(cc1n2)c(C)c5CC)c(C)c4C(=O)OC)[C@@H](CCC(=O)OC)[C@@H]3C` (stereo partly drawn) gave a Response (Mus musculus [1]) of 100%, a Response (Mus musculus [2]) of 0% and a Response (Mus musculus [19]) of 100%. The Response (Mus musculus [20]) was 0%, the Response (Mus musculus [21]) was 75% and the Response (Mus musculus [3]) was 0%.

`CCc1c(C)c2cc3nc(c4c5nc(cc6[nH]c(cc1[nH]2)[C@@](C)(O)[C@]6(O)CC)C(C)=C5C(=O)C4)[C@@H](CCC(=O)OC)[C@@H]3C` gave a Response (Mus musculus [16]) of 0%, a Response (Mus musculus [17]) of 0% and a Response (Mus musculus [18]) of 0%.

Compound `CCCCCCOC(C)C1=C(C)c2cc3nc(c4c5[nH]c(cc6[nH]c(cc1n2)c(C)c6CC)c(C)c5C(=O)[C@@H]4C(=O)OC)[C@@H](CCC(=O)OC)[C@@H]3C` (stereo partly drawn) has a Response (Mus musculus [1]) of 100%, a Response (Mus musculus [2]) of 0% and a Response (Mus musculus [16]) of 20%. It also gave a Response (Mus musculus [17]) of 100%, a Response (Mus musculus [19]) of 100% and a Response (Mus musculus [20]) of 50%. It also gave a Response (Mus musculus [21]) of 100%, a Response (Mus musculus [3]) of 90% and a Response (Mus musculus [18]) of 100%.

With `CCCCCCOC(C)C1=C(C)c2cc3nc(c4c5[nH]c(cc6[nH]c(cc1n2)c(C)c6CC)c(C)c5C(=O)C4)[C@@H](CCC(=O)OC)[C@@H]3C` (stereo partly drawn) the Response (Mus musculus [22]) was 100%, the Response (Mus musculus [23]) was 35% and the Response (Mus musculus [24]) was 85%. The Response (Mus musculus [1]) was 100%, the Response (Mus musculus [2]) was 50% and the Response (Mus musculus [3]) was 100%.
